These results are taken from ChEMBL document CHEMBL1153407, “12-Substituted 2,3-dimethoxy-8,9-methylenedioxybenzo[i]phenanthridines as novel topoisomerase I-targeting antitumor agents” (Bioorg Med Chem, 2009).

A value given as a limit tells only on which side of the number the result lay.

Assay [1] concerns P388. Description: Cytotoxicity against camptothecin-resistant mouse P388 cells after 4 days by MTT method. It is filed as functional, cell-based. The note with it: P388, 96 h. In general terms: Tetrazolium dyes change colour on reduction, which living cells bring about.
In assay [2] the target is T1, DNA topoisomerase 1 (Homo sapiens) (UniProt P11387).
T1 sequence (whole entry): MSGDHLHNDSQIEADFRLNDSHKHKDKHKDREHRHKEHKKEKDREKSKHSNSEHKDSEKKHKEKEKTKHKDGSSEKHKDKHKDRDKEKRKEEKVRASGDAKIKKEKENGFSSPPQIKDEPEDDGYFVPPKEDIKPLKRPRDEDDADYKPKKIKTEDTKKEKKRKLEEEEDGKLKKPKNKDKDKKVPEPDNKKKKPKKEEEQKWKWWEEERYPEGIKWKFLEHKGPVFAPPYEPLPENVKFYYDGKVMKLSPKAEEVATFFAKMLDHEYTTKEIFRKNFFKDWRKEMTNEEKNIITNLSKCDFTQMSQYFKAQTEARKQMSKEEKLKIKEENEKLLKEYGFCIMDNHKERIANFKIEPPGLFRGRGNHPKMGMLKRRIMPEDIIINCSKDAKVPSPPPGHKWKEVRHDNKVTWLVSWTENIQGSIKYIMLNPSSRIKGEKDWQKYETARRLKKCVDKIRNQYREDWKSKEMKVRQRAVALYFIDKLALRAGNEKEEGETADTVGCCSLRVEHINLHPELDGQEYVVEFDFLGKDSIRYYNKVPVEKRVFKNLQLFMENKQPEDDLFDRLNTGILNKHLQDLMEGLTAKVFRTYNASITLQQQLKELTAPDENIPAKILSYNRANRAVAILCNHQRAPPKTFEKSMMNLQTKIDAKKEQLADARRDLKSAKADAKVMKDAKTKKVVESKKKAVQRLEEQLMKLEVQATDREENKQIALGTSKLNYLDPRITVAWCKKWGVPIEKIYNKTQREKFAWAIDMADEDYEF
Nature of the assay: Inhibition of human topoisomerase 1 expressed in sf9 cells assessed as drug level causing 10% mediated DNA cleavage relative to topotecan.

Assay [3] can be described thus: Cytotoxicity against human KB3-1 cells after 4 days by MTT method. The note with it: KB 3-1, 96 h. The assay is classed as functional, cell-based.
A short description of assay [4]: Cytotoxicity against BCRP overexpressing human KBH5.0 cells after 4 days by MTT method. It is filed as functional, cell-based. The note with it: KBH5.0 cell, 96 h.
Assay [5] in a line: Cytotoxicity against human RPMI8402 cells after 4 days by MTT method. The note with it: RPMI 8402, 96 h. The assay is classed as functional, cell-based.
Assay [6] can be described thus: Cytotoxicity against MDR1 overexpressing human KBV1 cells after 4 days by MTT method. As to conditions: KB-V1, 96 h. The assay is classed as functional, cell-based.
Assay [7] can be described thus: Cytotoxicity against camptothecin-resistant human CPT-K5 cells after 4 days by MTT method. The note with it: CPT-K5, 96 h. The assay is classed as functional, cell-based.
Assay [8] relates to P388. Nature of the assay: Cytotoxicity against mouse P388 cells after 4 days by MTT method. The assay is classed as functional, cell-based. As to conditions: P388, 96 h.

As usually defined, the IC50 is the midpoint of a concentration-inhibition curve. With `COc1cc2c(CN(C)C)cc3c4cc5c(cc4ncc3c2cc1OC)OCO5`, the IC50 in assay [1] turned out to be 15 nM; in assay [3], 30 nM; in assay [4] it was 60 nM; in assay [5] it was 33 nM; in assay [6], 170 nM; in assay [7], 33 nM. The IC50 in assay [8] amounted to 5 nM. For the same compound, in assay [2], the Activity was found to be 1.1.
Turning to `COc1cc2c(C(=O)N(C)C)cc3c4cc5c(cc4ncc3c2cc1OC)OCO5`, the IC50 was over 10000 nM in assay [1]; 600 nM in assay [3]; 380 nM in assay [4]; 600 nM in assay [5]; 700 nM in assay [6]; over 10000 nM in assay [7]. Moreover, half-maximal inhibition in assay [8] (IC50) required 480 nM. Further, the Activity in assay [2] came out at 1.1.
With `COc1cc2c(CO)cc3c4cc5c(cc4ncc3c2cc1OC)OCO5`, the IC50 was found to be 30 nM in assay [1]; 45 nM in assay [3]; 80 nM in assay [4]; 30 nM in assay [5]; 75 nM in assay [6]; 30 nM in assay [7]. The compound further came in with an IC50 in assay [8] of 30 nM. Also, in assay [2], the Activity was 0.25.
With `COc1cc2c(CC[N+](=O)[O-])cc3c4cc5c(cc4ncc3c2cc1OC)OCO5`, the IC50 in assay [1] stood at 290 nM; in assay [3], 300 nM; in assay [4], 490 nM; in assay [5] it was 380 nM; in assay [6], 440 nM; in assay [7], 300 nM. In assay [8], this compound gave an IC50 of 280 nM. In assay [2], the Activity came to 7.7.
As to `COc1cc2c(C=O)cc3c4cc5c(cc4ncc3c2cc1OC)OCO5`, the IC50 was 2 nM in assay [1]; 4 nM in assay [3]; 19 nM in assay [4]; 3 nM in assay [5]; 16 nM in assay [6]; 3 nM in assay [7]. Besides, the concentration for half-maximal inhibition (IC50) in assay [8] was found to be 2 nM. Besides, the Activity in assay [2] worked out at 4.7.
Take `COc1cc2c(CCCN(C)C)cc3c4cc5c(cc4ncc3c2cc1OC)OCO5`: the IC50 was determined as 100 nM in assay [1]; 40 nM in assay [3]; 180 nM in assay [4]; 180 nM in assay [5]; 500 nM in assay [6]; 140 nM in assay [7]. In assay [8], this compound displayed an IC50 of 38 nM. Besides, the Activity in assay [2] was 10.
For the compound `COc1cc2c(CNCCN(C)C)cc3c4cc5c(cc4ncc3c2cc1OC)OCO5`, the half-inhibitory concentration (IC50) in assay [1] was 24 nM; in assay [3] it was 25 nM; in assay [4], 38 nM; in assay [5] it was 24 nM; in assay [6] it was 27 nM; in assay [7] it was 30 nM. For the same compound, inhibition in assay [8] was half-maximal at 20 nM (IC50). Also, in assay [2], the Activity came to 1.9.
`COc1cc2c(/C=C/[N+](=O)[O-])cc3c4cc5c(cc4ncc3c2cc1OC)OCO5`: the half-maximal inhibitory concentration (IC50) was determined as 25 nM in assay [1]; 30 nM in assay [3]; 40 nM in assay [4]; 33 nM in assay [5]; 1780 nM in assay [6]; 35 nM in assay [7]. Moreover, the IC50 in assay [8] worked out at 25 nM. Further, the Activity in assay [2] was determined as 9.2.
Consider `COc1cc2c(C(N)=O)cc3c4cc5c(cc4ncc3c2cc1OC)OCO5`, for which the half-inhibitory concentration (IC50) is over 10000 nM in assay [1]; 1500 nM in assay [3]; over 10000 nM in assay [4]; 4000 nM in assay [5]; over 10000 nM in assay [6]; over 10000 nM in assay [7]. In addition, in assay [8], half-maximal inhibition (IC50) was put at 1600 nM. In addition, the Activity in assay [2] was found to be 0.8.
For `COc1cc2c(CCCCN(C)C)cc3c4cc5c(cc4ncc3c2cc1OC)OCO5`, the IC50 was 2100 nM in assay [1]; 400 nM in assay [3]; 950 nM in assay [4]; 1000 nM in assay [5]; 4000 nM in assay [6]; 2300 nM in assay [7]. For the same compound, in assay [8], the midpoint of inhibition, the IC50, lay at 1400 nM. Also, the Activity in assay [2] stood at 0.2.
With `CC[C@@]1(O)C(=O)OCc2c1cc1n(c2=O)Cc2cc3ccccc3nc2-1` [CAMPTOTHECIN], the IC50 in assay [1] was over 10000 nM; in assay [5], 4 nM; in assay [7], over 10000 nM. In assay [2], the Activity turned out to be 0.2.
On to `COc1cc2c(CCN)cc3c4cc5c(cc4ncc3c2cc1OC)OCO5`, for which the IC50 in assay [1] is 300 nM; in assay [3], 50 nM; in assay [4] it was 200 nM; in assay [5], 25 nM; in assay [6], 500 nM; in assay [7] it was 250 nM. For the same compound, in assay [8], the midpoint of inhibition, the IC50, lay at 16 nM. The Activity in assay [2] was 0.3.
Take `CNC(=O)c1cc2c3cc4c(cc3ncc2c2cc(OC)c(OC)cc12)OCO4`: the IC50 is 300 nM in assay [1]; 31 nM in assay [3]; 80 nM in assay [4]; 40 nM in assay [5]; 100 nM in assay [6]; over 10000 nM in assay [7]. In assay [8], this compound came in with an IC50 of 30 nM. Also, the Activity in assay [2] was determined as 1.2.
As to `COc1cc2c(C(=O)NCCN(C)C)cc3c4cc5c(cc4ncc3c2cc1OC)OCO5`, the IC50 in assay [1] amounted to 320 nM; in assay [3], 5 nM; in assay [4], 60 nM; in assay [5], 3 nM; in assay [6], 220 nM; in assay [7], 1000 nM. Further, in assay [8], the IC50 was determined as 3 nM. In assay [2], the Activity worked out at 0.1.
Turning to `COc1cc2c(/C=C/CN(C)C)cc3c4cc5c(cc4ncc3c2cc1OC)OCO5`, the 50% inhibitory concentration (IC50) was determined as 37 nM in assay [1]; 160 nM in assay [3]; 290 nM in assay [4]; 45 nM in assay [5]; 370 nM in assay [6]; 83 nM in assay [7]. Besides, half-maximal inhibition in assay [8] (IC50) required 30 nM. Moreover, the Activity in assay [2] was 7.7.
With `CC[C@@]1(O)C(=O)OCc2c1cc1n(c2=O)Cc2cc3c(CN(C)C)c(O)ccc3nc2-1` [TOPOTECAN], the IC50 in assay [3] is 40 nM; in assay [4] it was 440 nM; in assay [6], 440 nM.
As for `COc1cc2c(=O)n(CCN(C)C)c3c4cc5c(cc4ncc3c2cc1OC)OCO5`, the Activity in assay [2] came out at 0.3. Further, the IC50 amounted to 5 nM in assay [3]; 6 nM in assay [4]; 2 nM in assay [5]; 2 nM in assay [6]; 900 nM in assay [7].
Turning to `CCc1c2c(nc3ccc(O)cc13)-c1cc3c(c(=O)n1C2)COC(=O)[C@]3(O)CC` [7-ETHYL-10-HYDROXYCAMPTOTHECIN], the IC50 stood at 4 nM in assay [3], 300 nM in assay [4] and 46 nM in assay [6].
For `COc1cc2c(/C=C/CCN(C)C)cc3c4cc5c(cc4ncc3c2cc1OC)OCO5`, the IC50 in assay [1] was 60 nM; in assay [3], 320 nM; in assay [4], 320 nM; in assay [5], 300 nM; in assay [6] it was 400 nM; in assay [7], 220 nM. In assay [8], this compound gave an IC50 of 30 nM. In addition, the Activity in assay [2] was determined as 15.
With `COc1cc2c3cnc4cc5c(cc4c3c(=O)n(CCN(C)C)c2cc1OC)OCO5`, the IC50 worked out at 15 nM in assay [1]; 3 nM in assay [3]; 4 nM in assay [4]; 0.7 nM in assay [5]; 4 nM in assay [6]; 210 nM in assay [7]. In addition, the Activity in assay [2] was 0.6.
In the case of `COc1cc2c(C(O)CCCN(C)C)cc3c4cc5c(cc4ncc3c2cc1OC)OCO5` (centres undefined), the 50% inhibitory concentration (IC50) in assay [1] turned out to be 510 nM; in assay [3], 170 nM; in assay [4], 550 nM; in assay [5] it was 300 nM; in assay [6], 1900 nM; in assay [7], 2100 nM. Half-maximal inhibition in assay [8] (IC50) was put at 410 nM. In assay [2], the Activity is 9.2.
As for `COc1cc2c(CCN(C)C)cc3c4cc5c(cc4ncc3c2cc1OC)OCO5`, the IC50 in assay [1] was 300 nM; in assay [3], 25 nM; in assay [4] it was 70 nM; in assay [5] it was 30 nM; in assay [6], 80 nM; in assay [7] it was 450 nM. This compound also showed an IC50 in assay [8] of 30 nM. Besides, the Activity in assay [2] came to 0.5.
